Data published in PMC8147781, “Discovery of Pyrrolidine-2,3-diones as Novel Inhibitors of P. aeruginosa PBP3” (Antibiotics, 2021).
Converted amounts (≈) assume the structure as drawn.

Tests used:
[1] = biological target: T1, PBP3 of P. aeruginosa (PaPBP3) (Pseudomonas aeruginosa, UniProt G3XD46); test: FP-Bocillin FL competition assay; type: binding; conditions: 30 min preincubation before Bocillin FL, 37 °C; read-out: IC50 Determination with PaPBP3, FP-Bocillin FL Assay
T1 construct: P. aeruginosa PBP3 (amino acids 40 to 563); His-tag; made in house; host or cells: E. coli BL21 (DE3) Rosetta, plasmid pET41_PBP-3
Protocol: Bocillin FL is a fluorescent penicillin V derivate used as a competitor for PBP inhibitors.
Fluorescence polarisation (FP) experiments were carried out as described before. To determine the binding of Bocillin FL to PBP, 200 nM of ^PaPBP3 was incubated for 30 min with 100 nM of Bocillin FL (Thermo Fisher Scientific, Waltham, MA, USA). The fluorescence polarisation signal of free Bocillin FL was monitored in a Pherastar microplate reader (BMG Labtech, Ortenberg, Germany) in the polarisation mode with Ex/Em: 485/520 nm excitation and emission filters. Millipolarisation (mP) units were calculated using the MARS data analysis software v30.40.R2 (BMG Labtech, Ortenberg, Germany). All the experiments were done in Sorensen buffer at 37 °C using flat-bottom, black 96-well plates. […] Bocillin FL was diluted in Sorensen buffer and added to the reaction and directly measured for 30 min at 37 °C. The FP was continuously measured in the presence and absence of compound and enzyme. […] The estimated IC50 values were established by sigmoidal nonlinear regression, using Prims v.8 software.

[2] = system: P. aeruginosa PAO1 (wild-type strain); test: MIC broth microdilution, P. aeruginosa PAO1; type: cell-based, Pseudomonas aeruginosa; conditions: wild-type strain, with 4 µg/mL PMBN
From the text: (§1) The results presented above implied that seven pyrrolidine-2,3-dione derivatives inhibited the activity of ^PaPBP3 in vitro. Consequently, we were very interested in investigating the potential of these compounds to affect the growth of P. aeruginosa. Two P. aeruginosa bacterial strains (the wild-type PAO1 and the isogenic ΔmexB ΔmexX ΔmexCD-oprJ efflux pump mutant) were used to determine the MIC and the potential role of the main P. aeruginosa efflux systems in compound uptake. To increase the antibacterial sensitivity of the tested P. aeruginosa isolates to the potential inhibitors, we performed MIC experiments in the presence and absence of a sub-MIC concentration (4 µg/mL) of the outer membrane permeabilising polymyxin B nonapeptide (PMBN). […] Thus, we concluded that the physicochemical properties of the pyrrolidine-2,3-dione compounds were perhaps not yet favourable enough to cross the P. aeruginosa cell envelope without a permeabiliser because of their high hydrophobicity.
(§2) The wild-type P.aeruginosa PAO1 and the isogenic P. aeruginosa K2896 ΔmexBΔmexXYΔmexCD-oprJ isolates were used to determine the MIC in the presence and absence of PMBN [48].
(§3) MIC determination was performed via standard broth microdilution according to the Clinical & Laboratory Standards institute guidelines. Overnight colonies grown on BD-Columbia agar with 5% Sheep Blood (Becton Dickinson, Franklin Lakes, NJ, USA), were diluted in Mueller Hinton Broth 2 cation adjusted (MH+) medium (Thermo Fisher Scientific) to a concentration of 5 × 10^5 CFU/mL. Serial dilutions (1:2) of test compounds were incubated at 37 °C with 5 × 10^4 bacteria in a final volume of 100 μL. Sterile and growth controls in the presence of 1% DMSO and PMBN if the case, and the positive controls, aztreonam (AZT) and tigecycline (TIG) were included in the experiments (Table S4). The MICs were determined visually after 18 h at 37 °C and confirmed by the addition of 10% PrestoBlue (ThermoFisher Scientific) reagent according to the manufacture’s protocol. The fluorescence signal of PrestoBlue reagent was measured at Ex/Em: 550/595 nm after 30 min incubation at 37 °C using at a ClarioStar microplate reader (BMG Labtech). PrestoBlue reduction occurs in the presence of living cells and consequently turns red in colour and is highly fluorescent.

[3] = system: P. aeruginosa K2896 ΔmexBΔmexXYΔmexCD-oprJ; test: MIC broth microdilution, P. aeruginosa K2896 efflux mutant; type: cell-based, Pseudomonas aeruginosa; conditions: ΔmexB; ΔmexX, ΔmexCD-oprJ, with 4 µg/mL PMBN
From the text: as §1, §2, §3

E. coli Neumann = test: MIC broth microdilution, E. coli; type: cell-based; conditions: Escherichia coli; Table S3; read-out: MIC (µM) E. coli Neumann
Protocol: as §3

B. subtilis 168 = test: MIC broth microdilution, B. subtilis; type: cell-based; conditions: Bacillus subtilis, 168; Table S3
Protocol: as §3

[4] = system: Hep G2, epithelial liver cell line; test: Cytotoxicity assay (PrestoBlue), HepG2; conditions: CC50, 72 h
Protocol: We finally tested the cytotoxicity of the compounds against four eukaryotic cell lines (Table 2 and Table S5), NRK-52E, an epithelial kidney cell line of Rattus norvegicus; Hep G2, an human epithelial liver cell line; and two suspension cell lines: CCRF-CEM, a T lymphoblast; and H9, a cutaneous T lymphocyte cell line.
Cell lines stored at −120 °C were thawed to 37 °C and resuspended in 10 mL of medium pre-warmed to 37 °C. Cells were pelleted at 300× g for 10 min, and then resuspended in fresh medium, seeded in a T-75 culture flask, and placed in a CO2 incubator (37 °C with 5% CO2 tension). Once the cells reached approximately 70–80% confluency, they were then passaged regularly. The adherent cell lines NRK52E, HepG2 and Huh 7 were washed once with 10 mL DPBS and detached with Trypsin-EDTA for 5 to 7 min and resuspended in 15 mL of the appropriate medium. The suspension cell line CCRF-CEM were diluted and resuspended in fresh RPMI 1640 PAN medium. To calculate the cell density, the cell resuspensions were diluted 1:6 with DPBS. Equal volumes of cell suspension and Trypan Blue were mixed and gently loaded into a haemocytometer (INCYTO, 31056 Republic of Korea). In each experiment, cell concentrations were adjusted to reach a concentration of 2.5 × 10^3 cell/well for NRK52E, 5 × 10^3 cell/well for HepG2, 6.2 × 10^4 cell/well for CCRF-CEM and 3 × 10^3 for H9. The cells were incubated with decreasing concentration of compounds (1 µL in 96% DMSO) for 72 h at 37 °C with 5% CO2 tension. Cycloheximide, a cytotoxic compound that interferes with the translocation step in eukaryotic protein synthesis was used as a control for the experiments. The assay was carried out in flat-bottom, transparent 96-well plates. Cell viability was determined using the PrestoBlue reagent (Thermo Fisher Scientific, Waltham, MA, USA) according to the manufacture’s protocol. First, 10× PrestoBlue was added to each well to obtain a 1× solution, and incubated at 37 °C for 45 min. Then, fluorescence was measured at Ex/Em: 550/595 nm using a ClarioStar microplate reader (BMG Labtech). Cytotoxicity was determined as the percentage of the difference in absorbance of the untreated sample to the treated sample. CC50 was calculated using the values obtained in each concentration using the sigmoidal dose-response by Prism v.8. The media used in each cell line is detailed in Table S6.

T1 sequence (G3XD46 40-563): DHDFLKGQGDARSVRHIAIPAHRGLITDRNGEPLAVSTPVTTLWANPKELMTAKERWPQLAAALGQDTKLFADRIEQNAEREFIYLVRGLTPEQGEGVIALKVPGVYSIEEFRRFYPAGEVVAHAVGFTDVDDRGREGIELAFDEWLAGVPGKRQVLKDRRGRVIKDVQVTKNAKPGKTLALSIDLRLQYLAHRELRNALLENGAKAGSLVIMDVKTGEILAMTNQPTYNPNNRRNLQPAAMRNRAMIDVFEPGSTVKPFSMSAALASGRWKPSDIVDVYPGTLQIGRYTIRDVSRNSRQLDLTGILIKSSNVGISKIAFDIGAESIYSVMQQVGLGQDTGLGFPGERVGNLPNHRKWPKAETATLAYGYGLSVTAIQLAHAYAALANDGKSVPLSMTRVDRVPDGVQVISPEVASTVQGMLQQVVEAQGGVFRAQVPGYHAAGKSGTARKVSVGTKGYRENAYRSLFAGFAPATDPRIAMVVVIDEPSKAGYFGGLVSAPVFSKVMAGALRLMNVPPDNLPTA

Structure (SMILES)	IC50 [1]	MIC (µM) against P. aeruginosa PAO1 [2]	MIC (µM) against P. aeruginosa K28926 [3]	MIC (E. coli Neumann)	MIC (B. subtilis 168)	Cytotoxicity effect (µM) Epithelial liver HepG2 [4]
CCN1C(=O)C(O)=C(C(=O)c2ccc(Br)cc2)C1c1ccc(Cl)cc1 (centres unmarked) [Compound 33]	> 100 µM	>100 µM	>100 µM	> 100 µM	> 100 µM	> 100 µM
O=C1NC(c2ccc(Cl)cc2)C(C(=O)c2ccc(Br)cc2)=C1O (centres unmarked) [Compound 32, 4-(4-bromobenzoyl)-5-(4-chlorophenyl)-3-hydroxy-1,5-dihydropyrrol-2-one]	> 100 µM	>100 µM	>100 µM	> 100 µM	100 µM (≈ 39.3 µg/mL)	> 100 µM
O=C(C1=C(O)C(=O)N(Cc2cc3cnccc3[nH]2)C1c1ccc(Cl)cc1)c1ccc(Br)cc1 (centres unmarked) [Compound 36]	> 100 µM	>100 µM	100 µM (≈ 52.3 µg/mL)	> 100 µM	> 100 µM	1 ± 2 µM
CCNC1=C(C(=O)c2ccc(Br)cc2)C(c2ccc(Cl)cc2)N(Cc2c[nH]c3ccccc23)C1=O (centres unmarked) [Compound 45]	> 100 µM	>100 µM	>100 µM	> 100 µM	> 100 µM	23 ± 8 µM
O=C(C1=C(O)C(=O)N(Cc2ccco2)C1c1ccc(Cl)cc1)c1ccc(Br)cc1 (centres unmarked) [Compound 41, 4-(4-bromobenzoyl)-5-(4-chlorophenyl)-1-(furan-2-ylmethyl)-3-hydroxy-5H-pyrrol-2-one]	> 100 µM	–	25 µM (≈ 11.8 µg/mL)	> 100 µM	> 100 µM	> 100 µM
O=C(C1=C(N2CCOCC2)C(=O)N(Cc2cccc(F)c2)C1c1ccc(Cl)cc1)c1ccc(Br)cc1 (centres unmarked) [Compound 44, 4-(4-bromobenzoyl)-5-(4-chlorophenyl)-1-[(3-fluorophenyl)methyl]-3-(morpholin-4-yl)-5H-pyrrol-2-one]	> 100 µM	>100 µM	>100 µM	> 100 µM	> 100 µM	> 100 µM
O=C(C1=C(O)C(=O)N(Cc2nc3ccccc3[nH]2)C1c1ccc(Cl)cc1)c1ccc(Br)cc1 (centres unmarked) [Compound 38]	117 ± 4 µM	>100 µM	>100 µM	> 100 µM	> 100 µM	> 100 µM
